Experimental data from patent US12649751B2 (Arcus Biosciences, Inc., priority 2022, dated 2026).
Where two headings read alike, the source gives them in different places.

Tests used:
HPK1 = HPK1 (Homo sapiens, UniProt Q92918); assay: HPK1 Biochemical Assay (ADP-Glo luminescence; low ATP 10 μM or high ATP 200 μM)
[1] = tested on: p-SLP-76 (Ser376) in Jurkat cells; assay: pSLP76 Cellular Assay (AlphaLISA SureFire Ultra p-SLP-76 (Ser376), anti-CD3 activated Jurkat cells); type: cell-based; conditions: read-out: Cellular Potency
Summary of the method: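 Jurkat cells, serum-starved overnight in Opti-MEM then in HBSS, preincubated 1 h at 37 °C with 22-point 2-fold compound dilutions, then stimulated with anti-CD3 (0.025 mg/ml added solution) for 45 min. Lysate p-SLP-76 (Ser376) measured by AlphaLISA at 570 nm; IC50 from 4-parameter logistic fit.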

[2] = HPK1 ADP-Glo assay, high ATP (200 μM ATP, 5 nM HPK1), read-out: Biochemical Potency (high ATP)
[3] = Homo sapiens, pSLP76 (Ser376) AlphaLISA, anti-CD3 activated Jurkat cells
[4] = 2 nM HPK1, 10 μM ATP, read-out: Biochemical Potency (low ATP)
[5] = Homo sapiens, Jurkat cells, anti-CD3 stimulation, pSLP76

Chain of HPK1 (Q92918 whole entry, species assumed): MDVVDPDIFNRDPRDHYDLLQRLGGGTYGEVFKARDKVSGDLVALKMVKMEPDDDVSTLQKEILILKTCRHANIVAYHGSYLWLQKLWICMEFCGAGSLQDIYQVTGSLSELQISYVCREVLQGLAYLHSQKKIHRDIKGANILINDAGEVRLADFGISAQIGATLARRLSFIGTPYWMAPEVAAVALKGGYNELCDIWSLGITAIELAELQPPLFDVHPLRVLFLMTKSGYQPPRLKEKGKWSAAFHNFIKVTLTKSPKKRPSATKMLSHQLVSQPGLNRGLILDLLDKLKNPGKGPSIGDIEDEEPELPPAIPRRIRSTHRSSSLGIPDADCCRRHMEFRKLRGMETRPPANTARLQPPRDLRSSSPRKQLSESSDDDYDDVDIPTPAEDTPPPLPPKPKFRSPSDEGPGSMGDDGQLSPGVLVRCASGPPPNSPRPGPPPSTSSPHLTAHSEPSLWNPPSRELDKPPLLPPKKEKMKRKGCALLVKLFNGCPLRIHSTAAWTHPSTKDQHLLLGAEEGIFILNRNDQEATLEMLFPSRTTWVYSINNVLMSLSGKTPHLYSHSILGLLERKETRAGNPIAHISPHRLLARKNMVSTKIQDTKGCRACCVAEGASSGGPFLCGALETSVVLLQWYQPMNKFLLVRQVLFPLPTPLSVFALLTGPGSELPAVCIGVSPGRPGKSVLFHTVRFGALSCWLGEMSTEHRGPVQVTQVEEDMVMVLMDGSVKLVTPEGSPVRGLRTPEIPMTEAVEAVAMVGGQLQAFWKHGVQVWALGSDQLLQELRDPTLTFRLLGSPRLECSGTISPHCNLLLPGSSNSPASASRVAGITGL

IC50 (HPK1; [2]) | IC50 [1, 3] | IC50 (HPK1; [4]) | IC50 [1, 5] | IC50 ([1]; pSLP76 (Ser376) AlphaLISA, anti-CD3 activated Jurkat cells) | SMILES
< 100 nM | < 100 nM | – | – | – | Cc1cc(Nc2cc3nc(-c4c(C)ccc(C(C)(C)O)c4C)sc3cn2)nc(N2C[C@@H]3C[C@H]2CN3C)n1 [Example 467]
< 100 nM | 100 to 1000 nM | – | – | – | Cc1cc(Nc2cc3nc(-n4cc(F)cn4)sc3cn2)nc(N2C[C@@H]3C[C@H]2CN3C)n1 [Example 429]
< 100 nM | < 100 nM | – | – | – | Cc1cc(Nc2cc3nc(-c4cccc(C(=O)N(C)C5CCCC5)c4)sc3cn2)nc(N2C[C@@H]3C[C@H]2CN3CCO)n1 [Example 544]
– | – | < 100 nM | 100 to 1000 nM | – | Cc1cccnc1-c1nc2cc(Nc3ccc(Cl)c(N4C[C@@H]5C[C@H]4CN5C)n3)ncc2s1 [Example 110, 5-Chloro-6-[(1S,4S)-5-methyl-2,5-diazabicyclo[2.2.1]heptan-2-yl]-N-[2-(3-methylpyridin-2-yl)-[1,3]thiazolo[5,4-c]pyridin-6-yl]pyridin-2-amine]
< 100 nM | – | – | – | < 100 nM | Cc1cc(Nc2cc3nc(-c4cccc(C(=O)N(C)[C@H]5CCCOC5)c4)sc3cn2)nc(N2C[C@@H]3C[C@H]2CN3CCO)n1 [Example 543]
< 100 nM | 1000 to 5000 nM | – | – | – | Cc1cc(Nc2cc3nc(-c4cccn5nccc45)sc3cn2)nc(N2C[C@@H]3C[C@H]2CN3CCO)n1 [Example 360]
< 100 nM | < 100 nM | – | – | – | CCN1C[C@@H]2C[C@H]1CN2c1nc(C)cc(Nc2cc3nc(-c4cccc(C(=O)N5CCC[C@@H]5COC)c4)sc3cn2)n1 [Example 535]
< 100 nM | 100 to 1000 nM | – | – | – | Cc1cc(Nc2cc3nc(-c4cccc(C5(O)CCC5)c4)sc3cn2)nc(N2C[C@@H]3C[C@H]2CN3C)n1 [Example 402]
– | – | < 100 nM | < 100 nM | – | c1cc(-c2nc3cc(Nc4ccc(C5CCOCC5)c(CN5CCCC5)n4)ncc3s2)ccn1 [Example 216, 5-(Oxan-4-yl)-N-[2-(pyridin-4-yl)-[1,3]thiazolo[5,4-c]pyridin-6-yl]-6-[(pyrrolidin-1-yl)methyl]pyridin-2-amine]
– | – | < 100 nM | 100 to 1000 nM | – | Cc1cccnc1-c1nc2cc(Nc3cncc(N4C[C@@H]5C[C@H]4CN5C)n3)ncc2s1 [Example 145, 6-[(1S,4S)-5-Methyl-2,5-diazabicyclo[2.2.1]heptan-2-yl]-N-[2-(3-methylpyridin-2-yl)-[1,3]thiazolo[5,4-c]pyridin-6-yl]pyrazin-2-amine]
< 100 nM | 100 to 1000 nM | – | – | – | CCN1C[C@@H]2C[C@H]1CN2c1nc(Nc2cc3nc(-c4ccnc(C(C)(C)O)c4)sc3cn2)cc(C)c1F [Example 337]
